Results as given in patent US5578570A, “Method of treating septic shock using thymosin β4” (The George Washington University Medical Center, priority 1994, dated 1996).

System: Rats with Septic Shock
Assay: Survival of Sprague-Dawley rats in septic shock model (peritonitis)
Format: in vivo
Conditions: Table XIV, septic shock + antibiotic (gentamicin sulfate, 1 mg/rat) alone, 10 rats at 0 hr
Text: Using a septic shock model in rats (Sprague-Dawley, male, 200-225 g each), the effect of thymosin β4 alone and together with antibiotics was studied. Peritonitis was induced in rats in the following way. A 1-cm incision was made into the peritoneal which exposed the cecum. A tight ligature was placed around the cecum with 4-0 suture distal to the insertion of the small bowel, forming an area of devitalized tissue while maintaining bowel continuity. A puncture wound was made with 16-gauge needle into the anti-mesenteric surface of the cecum and a small amount of fecal contents was expressed through the wound. The cecum was replaced into the peritoneal cavity, and the anterior peritoneal wall and skin were closed with surgical staples. Each animal was given a bolus of normal saline (15 ml/kg) for hydration and allowed to recover overnight.

## gentamicin sulfate [antibiotic, reference compound]
24 hr
  Survival of rats (number alive): 1
48 hr
  Survival of rats (number alive): 1
72 hr
  Survival of rats (number alive): 0
